Assays:
[1] = tested on: P. falciparum 3D7 (CQ-sensitive) erythrocytic stages; test: In vitro drug sensitivity assay (HRP2-ELISA) against erythrocytic stages, Pf3D7; assay type: cell-based; conditions: for IC50: read-out: IC50 Pf3D7
Description: (§1) The in vitro activity of harmicens 20–37 against the erythrocytic stages of CQ-sensitive (Pf3D7) and multidrug-resistant (PfDd2) P. falciparum strains was evaluated following a previously described method (Table 1).
(§2) The antiplasmodial activity of harmicens 20–37 was evaluated against two strains of P. falciparum (3D7—CQ-sensitive, Dd2—multidrug-resistant) as previously described using the histidine-rich protein 2 (HRP2) assay. Briefly, 96-well plates were pre-coated with the tested compounds in a three-fold dilution before ring-stage parasites were added to complete the culture medium at a hematocrit of 1.5% and parasitemia of 0.05%. After three days of incubation at 37 °C, 5% CO2, and 5% oxygen, plates were frozen until HRP2-ELISA analysis. All compounds were evaluated in duplicate in at least two independent experiments. The IC50 was determined using a nonlinear regression analysis of log concentration–response curves using the drc-package v0.9.0 of R v2.6.1 (R Foundation, Vienna, Austria).

[2] = tested on: P. falciparum Dd2 (multidrug-resistant) erythrocytic stages; test: In vitro drug sensitivity assay (HRP2-ELISA) against erythrocytic stages, PfDd2; assay type: cell-based; conditions: multidrug-resistant strain; three days incubation; mean ± SD; read-out: IC50 PfDd2
Description: as §1, §2

[3] = tested on: HepG2 (hepatocellular carcinoma); test: MTT cytotoxicity assay, HepG2; assay type: cell-based, human; conditions: 72 h, MTT; mean ± SD; read-out: IC50 HepG2
Description: (§3) The parent compound harmine, as well as the reference drug 5-fluorouracil, were used as positive controls.
(§4) The experiments were carried out on five human cell lines purchased from American Type Culture Collection (ATCC): HepG2 (hepatocellular carcinoma; ATCC® HB-8065™), SW620 (colorectal adenocarcinoma; ATCC® CCL-227™), HCT116 (colorectal carcinoma; ATCC® CCL-247™), MCF-7 (breast adenocarcinoma; ATCC® HTB-22™), and Hek293T (embryonic kidney cells; ATCC® CRL-3216™). All cell lines were cultured as monolayers and maintained in Dulbecco’s Modified Eagle Medium (DMEM) (Capricorn Scientific, Ebsdorfergrund, Germany) supplemented with 10% fetal bovine serum (FBS) (Capricorn Scientific, Ebsdorfergrund, Germany), 100 U/mL penicillin, and 100 µg/mL streptomycin (Capricorn Scientific, Ebsdorfergrund, Germany) in a humidified atmosphere with 5% CO2 at 37 °C. Cells were seeded in 96-well plates (Corning, Durham, NC, USA) at 5000–7000 cells per well (depending on the cell-doubling time of a specific cell line) in 0.1 mL media and cultured for 24 h. The next day, the medium was aspirated, and cells were treated for 72 h. Only the compounds that led to more than a 50% reduction in mitochondrial metabolic activity at a concentration of 50 µM were selected for further analysis. The following concentrations of selected compounds were used: 25, 10, 5, and 1 µM. Working dilutions were freshly prepared on the day of the testing. A fresh growth medium was added to untreated control cells, which were defined as 100% viable. DMSO (0.13%) in DMEM was considered a negative control. 5-Fluorouracil (5-FU) and harmine were used as positive controls. At the end of treatment, the medium was removed, and cells were incubated for 1 h with 0.5 mg/mL MTT (Abcam, Cambridge, MA, USA) dissolved in serum-deprived DMEM. The MTT-containing medium was then removed, and 0.1 mL isopropanol was added per well to lyse cells and dissolve formazan. The optical density was measured at 570 nm using a microplate reader (VICTOR3, PerkinElmer, Waltham, MA, USA). Each test point was performed in triplicate. The absorbance was directly proportional to the cell viability. The IC50 values (concentration required to decrease viability by 50%) were calculated by using nonlinear regression on the sigmoidal dose–response plots and are expressed as mean ± SD.

[4] = tested on: SW620 (colorectal adenocarcinoma); test: MTT cytotoxicity assay, SW620; assay type: cell-based, human; conditions: 72 h, MTT; mean ± SD; read-out: IC50 SW620
Description: as §3, §4

[5] = tested on: HCT116 (colorectal carcinoma); test: MTT cytotoxicity assay, HCT116; assay type: cell-based, human; conditions: for IC50: 72 h, MTT, mean ± SD, read-out: IC50 HCT116; for SI (HCT116): selectivity index: ratio of IC50 Hek293T to IC50 HCT116
Description: as §3, §4

[6] = tested on: MCF-7 (breast adenocarcinoma); test: cells; conditions: for IC50: read-out: IC50 MCF-7, 72 h, MTT, mean ± SD; for SI (MCF-7): selectivity index: ratio of IC50 Hek293T to IC50 MCF-7
Description: as §3, §4

[7] = tested on: Hek293T (embryonic kidney cells); test: MTT cytotoxicity assay, Hek293T; assay type: cell-based, human; conditions: noncancer cell line; 72 h, MTT; mean ± SD; read-out: IC50 Hek293T
Description: as §3, §4

HCT116 cells = test: Cell cycle analysis (propidium iodide, flow cytometry); assay type: cell-based, human; conditions: 3 µM and 6 µM
Description: To that end, the cells were treated for 24 and 48 h with 3 µM and 6 µM concentrations of each compound, which corresponded to 0.5 × IC50 and IC50 values obtained in the MTT assay after 72 h, respectively. Afterward, the DNA was stained with propidium iodide and subjected to flow cytometry analysis.
HCT116 cells were seeded onto 6-well plates (2 × 10^5 cells per well). After 24 h, the tested compounds 28 and 36 were added at two concentrations—3 µM and 6 µM. After 24 h and 48 h, the attached cells were trypsinized, combined with floating cells, washed with phosphate buffer saline (PBS), fixed with 70% ethanol, and stored at −20 °C. Immediately before analysis, the cells were washed two times with PBS, treated with 0.1 μg/μL of RNAse A, and stained for 1 h on ice with 50 μg/mL of propidium iodide. The stained cells were then analyzed using a BD FACScalibur flow cytometer (20,000 counts were measured). The percentage of cells in each cell cycle phase was determined using FlowJo software (TreeStar Inc., San Francisco, CA, USA). The tests were performed in duplicate and repeated in two separate experiments. The average values from duplicates from one representative experiment ± SD are presented.

[8] = CQ-sensitive strain, three days incubation, mean ± SD

Row | Compound | IC50 [1, 8] [µM] | IC50 [2] [µM] | IC50 [3] [µM] | IC50 [4] [µM] | IC50 [5] [µM] | SI (HCT116) [5] | IC50 [6] [µM] | SI (MCF-7) [6] | IC50 [7] [µM] | effect on cell cycle distribution after 24 h (HCT116 cells) | decrease in antiplasmodial activity against Pf3D7 relative to harmicene 23 ([1]; 28 (methylene bridge) versus its counterpart 23) [fold] | IC50 Pf3D7 [1, 8] | effect on cell cycle distribution after 48 h (HCT116 cells; 48 h) | activity against MCF-7 relative to 5-FU (fold stronger) [6]
1 | Cc1nccc2c1[nH]c1cc(OCCNC(=O)C[c-]3cccc3)ccc12.[Fe+2].c1cc[cH-]c1 [Compound 36, N-(2-((1-Methyl-9H-pyrido[3,4-b]indol-7-yl)oxy)ethyl)-2-ferrocenylacetamide] | 0.42 ± 0.02 | 1.53 ± 0.06 | 7.4 ± 0.5 | 4.2 ± 0.3 | 5.9 ± 1.3 | 1.4 | 4.5 ± 0.3 | 1.9 | 8.4 ± 0.3 | G1 phase arrest only at a higher concentration |  |  |  | 
2 | Cc1nccc2c1[nH]c1cc(OCc3cn(C[c-]4cccc4)nn3)ccc12.[Fe+2].c1cc[cH-]c1 [Compound 28, 7-((1-(Ferrocenylmethyl)-1H-1,2,3-triazol-4-yl)methoxy)-1-methyl-9H-pyrido[3,4-b]indole] | > 56 | > 56 | > 50 | > 50 | 7.4 ± 0.4 | >6.8 | > 50 | >1 | > 50 | statistically significant increase in cells in the G1 phase at both tested concentrations | 370 | inactive at the highest concentration tested | pronounced G2/M cell cycle arrest | 
3 | [Fe+2].c1cc[cH-]c1.c1ccc2c(c1)[nH]c1c(Cn3cc(-[c-]4cccc4)nn3)nccc12 [Compound 20, 1-((4-Ferrocenyl-1H-1,2,3-triazol-1-yl)methyl)-9H-pyrido[3,4-b]indole] | 9.23 ± 1.96 | 11.2 ± 2.23 | 43.9 ± 1.1 | > 50 | 29.4 ± 4.6 | >1.7 | 39.4 ± 7.9 | >1.3 | > 50 |  |  |  |  | 
4 | [Fe+2].c1cc[cH-]c1.c1ccc2c(c1)[nH]c1c(-c3cn(C[c-]4cccc4)nn3)nccc12 [Compound 25, 1-(1-(Ferrocenylmethyl)-1H-1,2,3-triazol-4-yl)-9H-pyrido[3,4-b]indole] | 3.62 ± 1.08 | 4.37 ± 1.79 | > 50 | 23.1 ± 6.4 | 7.6 ± 0.5 | >6.6 | > 50 | >1 | > 50 |  |  |  |  | 
5 | Cc1nccc2c1[nH]c1ccc(OCc3cn(C[c-]4cccc4)nn3)cc12.[Fe+2].c1cc[cH-]c1 [Compound 27, 6-((1-(Ferrocenylmethyl)-1H-1,2,3-triazol-4-yl)methoxy)-1-methyl-9H-pyrido[3,4-b]indole] | 0.31 ± 0.01 | 1.09 ± 0.01 | 17 ± 0.3 | 8.1 ± 0.2 | > 50 | < 0.9 | 6.8 ± 0.2 | 6.3 | 43 ± 8.6 |  |  |  |  | 3–6.5 fold
6 | 9-((1-(Ferocenylmethyl)-1H-1,2,3-triazol-4-yl)methyl)-7-methoxy-1-methyl-9H-pyrido[3,4-b]indole [Compound 29] | 2.12 ± 0.81 | 2.91 ± 0.05 | > 50 | > 50 | 14.6 ± 3.7 | >3.4 | > 50 | >1 | > 50 |  |  |  |  | 

Source: PMC9408872, “Harmicens, Novel Harmine and Ferrocene Hybrids: Design, Synthesis and Biological Activity” (International Journal of Molecular Sciences, 2022)
